Reference: patent publication US6809112B2, “Method of treating sexual disturbances” (priority 1999, dated 2004)

Legend:
Type in all cases: in vivo, human
[1] = test system: patient with Female Sexual Arousal Disorder; assay: Treatment of Female Sexual Arousal Disorder in a patient (Examples B, J); conditions: 3 mg/dose 0.5-1 hr before sexual activity; examined after one month; patient report
Description: A 64 kg, patient is complaining of vaginal dryness and mild discomfort during sexual intercourse. The patient recently began a relationship with a person. Their partner complained of their vaginal dryness and poor vaginal expansion during sexual intercourse. Their partner has made several comments about this during the previous two months and the patient is concerned that their partner is dissatisfied with their lack of sexual responsiveness and may end the relationship. The patient reports that they desire to continue the relationship. The patient has had several previous sexual relationships. They report that vaginal dryness and some discomfort with vaginal intercourse has occurred during their past sexual relationships. […] They find their current partner attractive and sexual desirable. […] During these episodes they usually have an orgasm. Lubrication is not a problem when they masturbate. […] They currently take no prescription drugs other than low dose birth control pills. […] The patient is diagnosed as having Female Sexual Arousal Disorder that is situational due to psychological factors (Diagnostic and Statistical Manual of Mental Disorders, Fourth Edition, 1994). (5R)-(methylamino)-5,6-dihydro-4H-imidazo[4,5,1-ij]quinolin-2(1H)-one (Z)-2-butenedioate (1:1) is prescribed at 3 mg/dose to be taken 0.5-1 hr before the patient intends to engage in sexual activity. The patient is instructed that they may use the drug on a daily basis, if this is the intended frequency of sexual activity. The patient is examined after one month. They report that they use the drug prior to intercourse. […] The patient is instructed to continue using the drug.

[2] = test system: patient with Hypoactive Sexual Desire Disorder; assay: Treatment of Hypoactive Sexual Desire Disorder in a patient (Examples A, I); conditions: 1 mg/dose 0.5 hr before sexual activity, examined after one month, patient report
Description: A 44 kg, patient is referred by their psychologist for evaluation for and medical treatment of hypoactive sexual desire disorder. The patient recently began to co-habitate with a person. They consulted a clinical psychologist because of distress over frequent arguments with their partner. These arguments concern their frustration that their partner is unwilling to marry them and the partner's accusations that they are sexually unresponsive and “boring in bed.” The patient reports that although they desire to continue the relationship, they have little or no interest in sexual activity with this partner. The partner initiates all sexual activity in the relationship and they comply so that the relationship will continue. They state that their partner desires sexual intercourse about once per day. Occasionally, the couple's frequency of sexual intercourse is as much as twice per day. […] They currently take no prescription drugs other than low dose birth control pills. […] The patient is diagnosed as having Hypoactive Sexual Desire Disorder of acquired onset due to situational factor (Diagnostic and Statistical Manual of Mental Disorders, Fourth Edition, 1994). (5R)-(methylamino)-5,6-dihydro-4H-imidazo[4,5,1-ij]quinolin-2(1H)-one (Z)-2-butenedioate (1:1) is prescribed at 1 mg/dose to be taken 0.5 hr before the patient intends to engage in sexual activity. The patient is instructed that they may use the drug on a daily basis, if they and their partner desire sexual activity at this frequency. They are also instructed that on occasions they may use the drug twice in a single day if this is the intended frequency of intercourse. The patient is examined after one month. They report that they use the drug once, and occasionally twice, per day. […] They also report that they and their partner argue less frequently and that their partner no longer accuses them of being disinterested in sexual relations. The patient is instructed to continue using the drug.

[3] = test system: patient with idiopathic epilepsy and hypogonadism, secondary to chronic carbamazepine treatment; assay: Treatment of reduced sexual function in a person with idiopathic epilepsy (Examples G, O); conditions: 3 mg/dose 0.5 hr before sexual activity, 2-3 times per week; carbamazepine 500 mg/day; examined after one month
Protocol: A 75 kg patient has idiopathic epilepsy. They first presented with primary generalized seizures and was diagnosed with idiopathic epilepsy. They have been treated with carbamazepine. Currently they receive 500 mg/day of the drug. They have had two tonic-clonic seizures during the preceding year. The patient complains of diminished sexual interest in their spouse of 8 years. On those occasions when they attempt sexual intercourse, they are able to maintain an erection sufficient for intercourse one-third of the time. […] They report that they rarely have sexual fantasies and rarely masturbates. […] They currently take no prescription drugs other than carbamazepine. […] Plasma testosterone and sex hormone binding globulin assays are performed. The plasma testosterone level is 25 nM, which is considered normal. The plasma sex hormone binding globulin level is 55 nM, which is considered elevated compared to the normal range. The patient is diagnosed with hypogonadism, secondary to chronic carbamazepine treatment (Epilepsia 36: 366-370, 1995). (5R)-(methylamino)-5,6-dihydro-4H-imidazo[4,5,1-ij]quinolin-2(1H)-one (Z)-2-butenedioate (1:1) is prescribed at 3 mg/dose to be taken 0.5 hr before the patient intends to engage in sexual activity. The patient is instructed that they may use the drug on a daily basis, if this is the intended frequency of sexual activity. The patient is examined after one month. They report that they take the drug 2-3 times per week. […] The patient is instructed to continue with the treatment.

[4] = test system: patient with Female Orgasmic Disorder; assay: Treatment of Female Orgasmic Disorder (Examples D, L); conditions: 1 mg/dose about 0.5 hr before sexual activity; examined after two months; patient report
Description: A 50 kg, patient who married three months before presenting for treatment. […] They were not sexually active prior to marriage. They report that their spouse had multiple premarital partners and that they report all their past partners had orgasms. The patient is upset by their inability to have orgasms and feels they are an poor spouse. On questioning they report that they are “too fat” although their weight is appropriate for their height. […] They currently take no prescription drugs other than low dose birth control pills. […] The patient is diagnosed as having Female Orgasmic Disorder that is situational due to psychological factors (Diagnostic and Statistical Manual of Mental Disorders, Fourth Edition, 1994). (5R)-(methylamino)-5,6-dihydro-4H-imidazo[4,5,1-ij]quinolin-2(1H)-one (Z)-2-butenedioate (1:1) is prescribed at 1 mg/dose to be taken about 0.5 hr before the patient intends to engage in sexual activity. The patient is instructed that they may use the drug on a daily basis, if this is the intended frequency of sexual activity. The patient is examined after two months. They report that they use the drug prior to intercourse. […] It is recommended that the patient continue to use the drug for an additional six months, then stop taking the drug for a period of two weeks to determine whether they might now be able to have orgasms in the absence of drug therapy.

CN[C@@H]1Cc2cccc3[nH]c(=O)n(c23)C1.O=C(O)/C=C\C(=O)O [(5R)-(methylamino)-5,6-dihydro-4H-imidazo[4,5,1-ij]quinolin-2(1H)-one (Z)-2-butenedioate (1:1)]
pain during initiation of vaginal penetration [1]: no longer has pain
treatment effect (sexual relationship) [1]: enjoys an improved sexual relationship with their partner
vaginal dryness [1]: no longer a problem
frequency of sexual fantasies ([2]; once, occasionally twice, per day): 3-4 occasions per week
initiation of sexual activity [2]: occasionally initiates sexual activity with their partner
treatment effect (sexual relationship) [2]: enjoys an improved sexual relationship with their partner
sexual interest and initiation of sexual activity [3]: feels more interest in sex and usually initiates sexual activity with their spouse
treatment effect (sexual relationship) [3]: enjoys a normal sexual relationship
orgasm during sexual intercourse [4]: has an orgasm during sexual intercourse on most occasions
treatment effect (sexual relationship) [4]: enjoys an improved sexual relationship with their partner

CN[C@@H]1Cc2cccc3[nH]c(=S)n(c23)C1 [(5R)-5-(Methylamino)-5,6-dihydro-4H-imidazo[4,5,1-ij]quinoline-2(1H)-thione]
treatment effect (sexual relationship) [1]: same positive treatment effect
treatment effect (sexual relationship) [2]: same positive treatment effect
treatment effect (sexual relationship) [3]: same positive treatment effect
treatment effect (sexual relationship) [4]: same positive treatment effect
